Results reported in PubChem BioAssay (NCI).
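Results reflect a 48-hour exposure of cells in 96-well plates to compound at five concentrations. TGI: concentration producing complete growth inhibition.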 Where a SMILES comes first, the peptide text is derived from it. [ ]: non-standard residue; d: D form. The star is where a group is joined. Phe(4-NO2) = N[CH](Cc1ccc([N+](=O)[O-])cc1)C(=O)O; Cbz = O=C(OCc1ccccc1)*

Key:
Test in all cases: NCI tumour cell line growth inhibition, 48 h
TK-10 renal = test system: TK-10 renal
NCI-H522 lung = test system: NCI-H522 lung
MOLT-4 leukemia = test system: MOLT-4 leukemia
NCI-H23 lung = test system: NCI-H23 lung
RXF 393 renal = test system: RXF 393 renal
HOP-62 NSCLC = test system: HOP-62 NSCLC
SW-620 colon = test system: SW-620 colon
NCI-H460 lung = test system: NCI-H460 lung
IGROV1 ovarian = test system: IGROV1 ovarian
SK-OV-3 ovarian = test system: SK-OV-3 ovarian
RPMI-8226 leukemia = test system: RPMI-8226 leukemia
LOX IMVI melanoma = test system: LOX IMVI melanoma
EKVX NSCLC = test system: EKVX NSCLC
OVCAR-8 ovarian = test system: OVCAR-8 ovarian
UACC-257 melanoma = test system: UACC-257 melanoma
MDA-N = test system: MDA-N
MCF7 breast = test system: MCF7 breast
BT-549 breast = test system: BT-549 breast
OVCAR-5 ovarian = test system: OVCAR-5 ovarian
UO-31 renal = test system: UO-31 renal
SR leukemia = test system: SR leukemia
A549 NSCLC = test system: A549 NSCLC
U251 CNS = test system: U251 CNS
ACHN renal = test system: ACHN renal
T-47D breast = test system: T-47D breast
SF-295 CNS = test system: SF-295 CNS
MDA-MB-435 = test system: MDA-MB-435
SNB-19 CNS = test system: SNB-19 CNS
COLO 205 colon = test system: COLO 205 colon
SK-MEL-2 melanoma = test system: SK-MEL-2 melanoma
OVCAR-4 ovarian = test system: OVCAR-4 ovarian
DU-145 prostate = test system: DU-145 prostate
SN12C renal = test system: SN12C renal
HS 578T breast = test system: HS 578T breast
HT29 colon = test system: HT29 colon
HCT-116 colon = test system: HCT-116 colon
SNB-75 CNS = test system: SNB-75 CNS
786-0 renal = test system: 786-0 renal
CCRF-CEM leukemia = test system: CCRF-CEM leukemia
PC-3 prostate = test system: PC-3 prostate
KM12 colon = test system: KM12 colon
NCI/ADR-RES ovarian = test system: NCI/ADR-RES ovarian
HCT-15 colon = test system: HCT-15 colon
SK-MEL-5 melanoma = test system: SK-MEL-5 melanoma
MALME-3M melanoma = test system: MALME-3M melanoma
SK-MEL-28 melanoma = test system: SK-MEL-28 melanoma
CAKI-1 renal = test system: CAKI-1 renal
MDA-MB-231 breast = test system: MDA-MB-231 breast
UACC-62 melanoma = test system: UACC-62 melanoma
OVCAR-3 ovarian = test system: OVCAR-3 ovarian
M14 melanoma = test system: M14 melanoma
NCI-H226 lung = test system: NCI-H226 lung
K-562 leukemia = test system: K-562 leukemia
SF-539 CNS = test system: SF-539 CNS
HCC-2998 colon = test system: HCC-2998 colon
HOP-92 NSCLC = test system: HOP-92 NSCLC

Measured: TGI

CCOC(=O)CCC(NC(=O)OCc1ccccc1)C(=O)NC(CCC(=O)OCC)C(=O)NC(Cc1ccc([N+](=O)[O-])cc1)C(=O)NC(CCC(=O)OCC)C(=O)NC(CCC(=O)OCC)C(=O)OCC (configuration not stated) (Cbz-E(OEt)E(OEt)[Phe(4-NO2)]E(OEt)E(OEt)-OEt; configuration not given here)
not listed: OVCAR-3 ovarian | M14 melanoma | NCI-H226 lung | K-562 leukemia | SF-539 CNS | HCC-2998 colon | HOP-92 NSCLC
> 100 µM: all other assays above

O=C(Nc1cc2c(=O)[nH]c3ccccc3c2oc1=O)c1cnccn1
not listed: HOP-62 NSCLC | RPMI-8226 leukemia | HS 578T breast
> 100 µM: all other assays above
